Test results published in patent publication US10820588B2, “Compositionally and morphologically controlled nanostructures for delivery of micronutrients and suppression of disease in agriculture” (Wisconsin Alumni Research Foundation, priority 2018, dated 2020).

Tests used:
Format in all cases: in vivo
[1] = test system: Fusarium wilt of watermelon; test: Field experiment Location 1, Fusarium wilt of watermelon
Experimental: (§1) Field experiments were conducted to evaluate if successful greenhouse results would translate to a field application. The following six treatments were established at two field locations (Hamden, Conn.—Location 1; and Griswold, Conn.—Location 2) to evaluate their effect on growth and Fusarium wilt of watermelon: CuO nanoparticles, Cu3(PO4)2.3H2O nanosheets, commercial powders of CuO and Cu3(PO4)2, CuSO4, and untreated controls. The commercial powders are not nanostructured as particles within the powders typically have a range of sizes from about 1 μm to 1 mm. Again, the primary purpose of this work was to compare the efficacy of the two nanoscale materials, and the suspensions of CuO and Cu3(PO4)2 commercial powders and the solution of CuSO4 were included only for comparison. It is noted that the CuO and Cu3(PO4)2 materials were used at concentrations where there were solid particles present in the liquid formulations, so those liquid formulations are best characterized as being suspensions with some dissolved ions. By contrast, because of its high solubility, CuSO4 in liquid is completely dissolved and thus is a true solution (only ions present and no remaining solid). […]
(§2) Field microplots were prepared in early June, 2017. […] Total plant biomass and fruit mass were determined at harvest, and select tissues were dried for analysis by ICP mass spectrometry (ICP-MS) as noted below.

[2] = test system: Fusarium wilt of watermelon; test: Field experiment Location 2, Fusarium wilt of watermelon; details: location 2, 400 mg/L, not statistically significant
Experimental: as §1, §2

[3] = test system: F. oxysporum f. sp. niveum; test: Greenhouse foliar spray, watermelon with or without Fusarium; details: disease conditions
Experimental: Watermelon seeds (Citrullus lanatus Thunb. cv Sugar Baby, Harris Seed Co., Rochester, N.Y.) were germinated in soilless potting mix (ProMix BX, Premier Hort Tech, Quakertown, Pa., USA) and fertilized once after three weeks with 40 mL of Peter's soluble 20-10-20 (N—P—K) fertilizer (R. J. Peters Inc., Allentown, Pa.). When plants reached the 3- to 4-leaf stage, uniform medium size plants were selected for NP exposure. […] For CuO NP, the suspension was sonicated using a probe sonicator for 2 min in an ice bath. […] One to two drops (1 ml/L) of Regulaid® nonionic surfactant were added into the suspensions prior to exposure. Polyvinylidene chloride film (Saran™ wrap) was fitted around the stem to prevent soil exposure to the NP suspensions. Although the primary purpose of this work was to compare different nanoscale materials, bulk CuO and CuSO4 (Sigma, St. Louis, Mo.) were used for additional comparative purposes in the greenhouse experiments. […]
F. oxysporum f. sp. niveum was prepared on Japanese millet, as previously described. […] The progress of disease as represented by the cumulative ratings of disease on replicate plants was plotted over time and the AUDPC was calculated using the trapezoid rule: AUDPC=Σ[Yi±Y(i±1)]/2×(t(i±1)−ti), where Yi=the disease rating at time ti. […]

SMILES: O=S(=O)([O-])[O-].[Cu+2] [CuSO4]
- disease result compared with the nanomaterial treatments ([1]; field, 400 mg/L): statistically equivalent
- increase of yield (total wet mass of fruit per plot) over the disease condition ([1]; location 1, 400 mg/L): no such benefit
- increase of fruit yield [2]: 38.2%
- effect on disease-induced decrease in vine length [3]: had no impact
